According to US5693609A, “Acylated insulin analogs” (Eli Lilly and Company, priority 1994, dated 1997):

Columns and labels:
[1] = tested on: conscious dog model; assay: Plasma glucose after subcutaneous injection in conscious dog model; assay type: in vivo, beagles; conditions: for Plasma glucose concentration: n = 1
Protocol: Experiments were conducted in overnight-fasted, conscious, adult (1-2 years of age) male and female beagles weighing 8-15 kg. At least ten days prior to the study, animals were anesthetized with isoflurane, and a cut-down was made in the left or right inguinal region. Silastic catheters were inserted into the femoral artery and into the proximal caudal femoral vein and secured with 4-0 silk suture. The free ends of the catheters were passed subcutaneously to the back using a trocar needle. The catheters were then filled with a glycerol/heparin solution (3:1, v/v; final heparin concentration of 250 KIU/ml), and the free ends were knotted and placed in a subcutaneous pocket to allow complete closure of the skin. Keflex was administered both pre-operatively (20 mg/kg, IV and 20 mg/kg, I.M.) and post-operatively (250 mg, p.o. once daily for seven days) to prevent infections. Torbugesic (1.5 mg/kg, I.M.) was administered post-operatively to control pain. Blood was drawn just prior to the study day to determine the health of the animal. Only animals with hematocrits above 38% and leukocyte counts below 16,000/mm^3 were used. The afternoon before the experiment, the free ends of the catheters were exteriorized from the subcutaneous pocket through a small incision made under local anesthesia (2% lidocaine), and the dog was fitted with a tether system jacket and collar assembly. The morning of the experiment, the contents of the arterial catheter were aspirated (only the arterial line was used in these studies), the catheter was flushed with saline, and an extension line (protected by a stainless steel tether) was attached to the catheter. The dog was placed in a metabolic cage, and the catheter extension line and tether was attached to a swivel system to allow the dog to move freely about the cage. After a 15 minute rest period (45 minutes, controls), blood (2-3.5 ml) was drawn for determination of the plasma glucose concentration. A second baseline sample was drawn 15 minutes later (0 time). Test substance (phosphate buffered saline or […] of B28-N^ε -Palmitoyl Lys^B28 Pro^B29 -human insulin; this does is the molar equivalent of 1.75 U/kg of human insulin) was administered subcutaneously in the dorsal of the neck.
Arterial blood samples (2-3.5 ml) were then taken at least every 30 minutes for the next two (controls) to six (B28-N^ε -palmitoyl Lys^B28 Pro^B29 -human insulin) hours. Samples were collected in vacuum blood collection tubes containing disodium EDTA and immediately placed on ice. The samples were centrifuged, and the resulting plasma was transferred to polypropylene test tubes and stored on ice or refrigerated for the duration of the study.
At the conclusion of the experiment, the animal was anesthetized (isoflurane); the catheter was flushed with fresh saline and filled with the glycerol/heparin mixture; the free end of the catheter was knotted and placed subcutaneously as described earlier; and antibiotic was administered (300 mg Keflex, I.M.). Plasma glucose concentrations were determined the day of the study using a glucose oxidase method in a Beckman glucose analyzer. Values are listed as the mean ± the standard error of the mean (SEM).

[2] = tested on: male rats; conditions: 25 U/mL, cited from earlier work; for hypoglycemic effect, administered intramuscularly: intramuscularly (FIG. 6 of Hashimoto et al.); for hypoglycemic effect, administered intravenously: intravenously (FIG. 5 of Hashimoto et al.)

Row | Substance | Plasma glucose concentration ([1]; 30 minutes after 10.5 subcutaneously) [mg/dL] | Plasma glucose concentration ([1]; 60 minutes after 10.5 subcutaneously) [mg/dL] | Plasma glucose concentration ([1]; 90 minutes after 10.5 subcutaneously) [mg/dL] | Plasma glucose concentration ([1]; 120 minutes after 10.5 subcutaneously) [mg/dL] | Plasma glucose concentration ([1]; 150 minutes after 10.5 subcutaneously) [mg/dL] | Plasma glucose concentration ([1]; 180 minutes after 10.5 subcutaneously) [mg/dL] | Plasma glucose concentration ([1]; 210 minutes after 10.5 subcutaneously) [mg/dL] | Plasma glucose concentration ([1]; 240 minutes after 10.5 subcutaneously) [mg/dL] | Plasma glucose concentration ([1]; 270 minutes after 10.5 subcutaneously) [mg/dL] | Plasma glucose concentration ([1]; 300 minutes after 10.5 subcutaneously) [mg/dL] | Plasma glucose concentration ([1]; 330 minutes after 10.5 subcutaneously) [mg/dL] | Plasma glucose concentration ([1]; 360 minutes after 10.5 subcutaneously) [mg/dL] | decrease in the plasma glucose concentration ([1]; six hours post-injection, vs baseline) [%] | activity in conscious dog model (in words) ([1]; subcutaneous, 10.5) | Plasma glucose concentration ([1]; time 0 minutes (baseline), overnight-fasted dog) [mg/dL] | Plasma glucose concentration ([1]; time -15 minutes (baseline, before injection), overnight-fasted dog) [mg/dL] | hypoglycemic effect, administered intramuscularly [2] | hypoglycemic effect, administered intravenously [2]
1 | B28-N^ε -Palmitoyl Lys^B28 Pro^B29 -human insulin | 114 | 107 | 102 | 99 | 101 | 100 | 100 | 98 | 87 | 82 | 79 | 75 | 35 | insulin-like activity | 116 | 116 |  | 
2 | B1-N^α -palmitoyl insulin |  |  |  |  |  |  |  |  |  |  |  |  |  |  |  |  | only a short hypoglycemic effect | very low activity
3 | B1,B29-N^α N^ε -dipalmitoyl insulin [B1,B29-Nα, N^ε -dipalmitoyl insulin] |  |  |  |  |  |  |  |  |  |  |  |  |  |  |  |  | negligible effect | very low activity
